Here are results for 15 compounds from PMC8560999 (The Journal of Biological Chemistry, 2021).

Like-named read-outs stand apart in the source and are kept apart here.

Data set [1] deals with AbHpaI. It is filed as binding, Acinetobacter baumannii.
Data set [2] concerns AbHpaI. The class given is physicochemical, Acinetobacter baumannii.
Data set [3] deals with AbHpaI. The class given is physicochemical, Acinetobacter baumannii. The source holds these as a separate data set.
Data set [4] relates to AbHpaI•Zn^2+. The data set is described as follows: Steady-state aldol cleavage followed as substrate depletion by RapidFire high-throughput mass spectrometry in 10 mM HEPES pH 7.0 with 0.1 mM Zn2+ and 5 uM ((4R)-KDGal) or 40 uM ((4S)-KDGlu) enzyme, Michaelis-Menten fit. It is filed as biochemical. As to the method:
The aldol cleavage steady-state kinetics of (4R)-KDGal and (4S)-KDGlu catalyzed by AbHpaI•Zn^2+ were carried out using RapidFire high-throughput mass spectrometry. The reactions contained 0.1 mM ZnCl2 and the purified AbHpaI in buffer H and varying concentrations of the substrate. […] Before RapidFire analysis, the reaction was quenched by an equal volume of ACN at various times (0.5–30 min) and the quenched solution was centrifuged at 12,000g for 10 min and filtered by a 0.22-μm nylon membrane syringe filter (FilterBio Nylon Syringe Filter) to obtain the filtrate of the remaining substrate. The substrate control reaction without the enzyme was performed. […] Peak areas of the remaining substrate were measured in a negative mode with a quantitative selected ion monitoring (SIM) mode to detect the m/z 177.0 ([M-H]^−) of both (4R)-KDGal and (4S)-KDGlu, and the concentrations were determined from the calibration plot of substrate standard concentrations (0.025–3.2 mM) versus peak areas. The initial velocity (νo) of the substrate depletion from each individual concentration of substrate was calculated from the slope of the plot between the remaining substrate and time. The plots of νo versus each substrate concentration were analyzed by Michaelis–Menten equation using the Levenberg–Marquardt algorithms in GraphPad Prism version 7 software (GraphPad Software, Inc) to determine Km and kcat.

The target in data set [5] is 4-hydroxy-2-keto-heptane-1,7-dioate aldolase from Acinetobacter baumannii (Acinetobacter baumannii). Briefly: crystal structure; 11 structures of AbHpaI (apo and with M2+ and ligands), monoclinic C2 crystals, trimer per asymmetric unit, hexamer by twofold rotational symmetry; crystals grown with sodium acetate pH 4.6, CaCl2 and 30% MPD.
Data set [6] shares this target. Briefly: SEC; Superdex 200 Increase 10/300 GL, 10 mM HEPES pH 7.0 with 150 mM NaCl, 0.5 ml/min, 25 °C, calibrated with protein standards of 12.4-440 kDa.
Data set [7] relates to BxBphI. The following applies: cited from earlier work.
The subject of data set [8] is AbHpaI•Zn^2+. It is filed as biochemical, Acinetobacter baumannii.
In data set [9] the test system is AbHpaI•Zn^2+. To be noted: read-out: Km (mM), aldol condensation of (4R)-KDGal synthesis, D-glyceraldehyde varied.
Data set [10] has as its system AbHpaI•Zn^2+. The class given is biochemical, Acinetobacter baumannii. The source holds these as a separate data set.
For data set [11], the system named is AbHpaI. It is filed as biochemical, Acinetobacter baumannii.
Data set [12] relates to EcHpaI. To be noted: cited from earlier work.
For data set [13], the target named is AbHpaI•Co^2+. Briefly: Isothermal titration calorimetry (MicroCal PEAQ-ITC) of 10 mM pyruvate into 40 uM apo-AbHpaI mixed with metal ion at 10 times its Kd, 50 mM HEPES pH 7.0, 25 °C, one-site binding model. On the procedure: (§1) The Kd values for the binding of AbHpaI with ligands including M^2+ ions (Zn^2+, Co^2+, Mn^2+, Mg^2+, and Ca^2+) and pyruvate were measured by MicroCal PEAQ-ITC technique (Malvern Panalytical). Briefly, a 10-ml solution of apo-AbHpaI (200 μM) was dialyzed in 2 l of buffer F at 4 °C for 16 to 18 h. The dialyzed buffer was used to prepare a stock solution of each ligand. To measure the Kd value for the AbHpaI•M^2+ complex, a 200-μl solution of the apo-AbHpaI (40 μM) was loaded into the sample cell and the Milli-Q Type I ultrapure water was used as a reference. Three microliters of 1.5 mM ligand solution of each M^2+ in a syringe was continuously titrated into the sample cell (0.3 μM per each injection for 13 injections) until the ligand binding reached an equilibrium at 25 °C. The Microcal PEAQ-ITC analysis software was used to calculate the Kd using the one-site binding model. To determine the pyruvate binding constant to AbHpaI, a 200-μl solution of the apo-AbHpaI (40 μM) was placed in the sample cell and sequentially titrated with 3 μl of 10 mM pyruvate solution from a syringe. To determine the pyruvate binding constant to the AbHpaI•M^2+ complex, a 200-μl solution of the mixture of apo-AbHpaI (40 μM) and 10 Kd of each M^2+ was placed in the sample cell and sequentially titrated with 3 μl of a 10 mM solution mixture of pyruvate and 10 Kd of each M^2+.

The target of data set [14] is AbHpaI•Mn^2+. The description is as above. As to the method: as §1
For data set [15], the target named is AbHpaI•Zn^2+. The description is as above. As to the method: as §1

As to `[Zn+2]` [Zn^2+], in data set [1], the “mole ratio of metal ion per AbHpaI” value stood at 1.1. Besides, in data set [2], the Tm worked out at 87 °C and the thermal shift (ΔTm) came out at 5.7 °C.

For `[Mg+2]` [Mg^2+], in data set [1], the “mole ratio of metal ion per AbHpaI” value is 0.6.

As to `CC#N` [ACN, acetronitrile], the “protein stability of AbHpaI perturbed” value in data set [3] was 10%.

With `[Mn+2]` [Mn^2+], in data set [1], the “mole ratio of metal ion per AbHpaI” value amounted to 0.6. Besides, the thermal shift (ΔTm) in [2] was found to be 1.7 °C.

On to `CO` [MeOH, methanol], for which the “protein stability of AbHpaI perturbed” value in data set [3] is 10%.

Regarding `[Ca+2]` [Ca^2+], in data set [1], the “mole ratio of metal ion per AbHpaI” value is 0.1.

On to `O=C(O)C(=O)C[C@@H](O)[C@H](O)CO` [(4R)-KDGal, (4R)-2-keto-3-deoxy-D-galactonate], for which the Km in [4] is 0.3 ± 0.1 mM.

On to `[Co+2]` [Co^2+], for which, in [1], the “mole ratio of metal ion per AbHpaI” value was determined as 0.8. Moreover, in data set [2], the ΔTm was found to be 3.4 °C.

On to `C[S+](C)[O-]` [DMSO, dimethylsulfoxide], for which the “protein stability of AbHpaI perturbed” value in [3] is listed as 10%.

As for “4-hydroxy-2-keto-heptane-1,7-dioate aldolase from Acinetobacter baumannii (enzyme)”, the stoichiometry N in data set [5] and in [6] was 6 in each case.

For `C[C@H](O)CC(=O)C(=O)O` [(4S)-HOPA, 4-hydroxy-2-oxopentanoate], in data set [7], the “turnover number, aldol cleavage” value is 4 s⁻¹ and the “turnover number, condensation” value is 0.9 s⁻¹.

Take `O=C[C@H](O)CO` [D-Glyceraldehyde, D-glyceraldehyde]: the kcat in data set [8] worked out at 2.048 ± 0.293 s⁻¹. For the same compound, the Km in data set [9] was determined as 10.6 ± 3.6 mM.

Regarding `O=C(O)C(=O)CC(O)C(O)CO` [(4R)-KDGal, (4R)-2-keto-3-deoxy-D-galactonate], the “turnover number of (4R)-KDGal synthesis” value in [8] was ~1.67 s⁻¹. In data set [10], the Michaelis-Menten constant (Km) was determined as 300 ± 100 µM; the kcat came out at 0.05 ± 0.005 s⁻¹; the “kcat of cleavage, fold faster than (4S)-KDGlu” value came out at 18 fold; the “kcat/Km of cleavage, fold greater than (4S)-KDGlu” value is recorded as “about 36 fold”.

Turning to `O=C(O)C(=O)C[C@H](O)[C@H](O)CO` [(4S)-KDGlu, (4S)-2-keto-3-deoxy-D-gluconate], the turnover number (kcat) in data set [10] was 0.00283 ± 0.00017 s⁻¹. Besides, in data set [4], the Michaelis constant (Km) came to 0.6 ± 0.1 mM. Besides, the “(4S)-KDGlu formation as compared to (4R)-KDGal” value in data set [11] is 0.1%.

Turning to `CC(=O)C(=O)O` [Pyruvate, pyruvate], the Michaelis constant (Km) in [8] is 1600 ± 700 µM. In addition, in data set [8], the kcat turned out to be 1.713 ± 0.265 s⁻¹. For the same compound, the “pKa of pyruvate C3-methyl” value in [12] is given as ~6.5. Besides, the figures for the Kd in data set [13], in [14] and in data set [15] were 320 ± 40 µM, 1320 ± 500 µM and 980 ± 60 µM, respectively.

What is called ΔTm is the shift of the melting midpoint relative to a reference. Broadly, the Km is the concentration of substrate that gives half-maximal velocity. A word on the stoichiometry N: it is a count of units in the complex or per binding partner. Usually kcat stands for the number of substrate molecules converted per active site and unit of time at saturation. By Kd is commonly meant the constant that tells how readily two partners part at equilibrium. Lower therefore signals tighter binding.
